Here are results for 26 molecules from the supplement of paper PMC10011410.

The structures appear in SMILES notation. ± gives the standard deviation of the averaged measurements.

The test system of one assay is U-2 OS. Put plainly: relative cell count vs DMSO (cell painting) (fraction of DMSO control); higher = more cells remaining (less cytotoxic). Conditions: 10 µM; 24 h. The gist of the method: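 In this cell painting assay, roughly 1,500 U-2 OS cells per well in 384-well plates were pin-tool treated at 37 °C for 24 h, typically at six 2-fold steps from 20 μM down to 625 nM. Cells were stained with MitoTracker, concanavalin A, phalloidin, wheat germ agglutinin, Hoechst and SYTO 14, imaged on an Opera Phenix, and analysed in CellProfiler with normalization to same-plate DMSO cells. Reported values are means of four replicate plates, with the activity score defined as the Mahalanobis distance from DMSO wells and cell count defined relative to DMSO wells.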
`CCCCCC[C@H]1C(=O)O[C@H](C)[C@H](NC(=O)c2cccc(NC=O)c2O)C(=O)O[C@@H](C)[C@@H]1OC(=O)CC(C)C`: the relative cell count is 0.783.

The molecule `COC(=O)[C@]1(C)CC[C@]2(C)CC[C@]3(C)C4=CC=C5C(=CC(=O)C(O)=C5C)[C@]4(C)CC[C@@]3(C)[C@@H]2C1` came in with a relative cell count of 0.0539.

The same assay, now with this note: 20 µM; 24 h.
As to `O=C(Nc1nc(-c2ccccc2)ns1)c1cccs1`, the relative cell count came to 0.914.

`Cc1cc2c(C(C)C)c(O)c(O)c(C=O)c2c(O)c1-c1c(C)cc2c(C(C)C)c(O)c(O)c(C=O)c2c1O` returned a relative cell count of 0.551.

The molecule `C=CC(=O)Nc1cc(Nc2nccc(-c3cn(C)c4ccccc34)n2)c(OC)cc1N(C)CCN(C)C` registered a relative cell count of 0.363.

`O=S1(=O)C=Cc2ccccc21` displayed a relative cell count of 0.957.

`CC(=O)c1c(O)c(C)c(O)c(Cc2c(O)c3c(c(C(=O)C=Cc4ccccc4)c2O)OC(C)(C)C=C3)c1O`: the relative cell count stood at 1.07.

For `CC1(C)CC[C@]2(C(=O)n3ccnc3)CC[C@]3(C)[C@H](C(=O)C=C4[C@@]5(C)C=C(C#N)C(=O)C(C)(C)[C@@H]5CC[C@]43C)[C@@H]2C1`, the relative cell count was 0.0644.

Turning to `COC[C@H]1OC(=O)c2coc3c2[C@@]1(C)C1=C(C3=O)[C@@H]2CCC(=O)[C@@]2(C)C[C@H]1OC(C)=O`, the relative cell count is 0.785 ± 0.058.

As to `c1ccc(Nc2nc(-c3ccccc3)ns2)cc1`, the relative cell count turned out to be 0.841.

`C=CC(=O)Nc1cccc(Oc2nc(Nc3ccc(N4CCN(C)CC4)cc3OC)ncc2Cl)c1` came in with a relative cell count of 0.342.

The molecule `Cn1nnnc1SC1=CS(=O)(=O)c2ccccc21` returned a relative cell count of 0.255.

For `CCC(=O)N1CCN(c2ccc(-n3c(=O)ccc4cnc5ccc(-c6cnc7ccccc7c6)cc5c43)cc2C(F)(F)F)CC1`, the relative cell count is 0.656.

On to `O=C1CC(Nc2ccccc2)C(=O)N1Cc1ccccc1` (stereo not drawn), for which the relative cell count was found to be 1.05.

`C[C@@H]1C[C@H]2O[C@@H]2/C=C\C=C\C(=O)Cc2c(Cl)c(O)cc(O)c2C(=O)O1`: the relative cell count was 0.388 ± 0.018.

Turning to `C=CC(=O)Nc1cc2c(Nc3ccc(F)c(Cl)c3)ncnc2cc1OCCCN1CCOCC1`, the relative cell count is 0.019.

The molecule `O=C1/C(=C/c2ccc(O)c(Br)c2)CCC/C1=C\c1ccc(O)c(Br)c1` registered a relative cell count of 0.55.

Molecule `CNC(=O)Nc1ccc2c(c1)CC[C@@]21OC(=O)N(CC(=O)N(Cc2ccc(F)cc2)[C@@H](C)C(F)(F)F)C1=O` returned a relative cell count of 1.

For `O=C(O[C@@H]1Cc2c(O)cc(O)cc2O[C@@H]1c1cc(O)c(O)c(O)c1)c1cc(O)c(O)c(O)c1`, the relative cell count is 0.897.

In turn, `O=S1(=O)C=C(Sc2nn(-c3ccccc3)c(=S)s2)c2ccccc21` came in with a relative cell count of 0.259.

Take `C=CC(=O)Nc1ccc(CN2C(=O)N(c3cc(OC)cc(OC)c3)Cc3cnc(Nc4ccc(N5CCN(C)CC5)cc4)nc32)cc1`: the relative cell count was found to be 0.673.

In turn, `CCCCCCCCCCCCCCCc1cccc(O)c1C(=O)O` gave a relative cell count of 1.05.

Regarding `Cl.Cl.O=C(O)Cn1nnc(-c2ccc(CN(CCCCOc3ccc(CN4CCCC4)cc3)CCc3ccccc3)cc2)n1`, the relative cell count turned out to be 1.01.

`COc1cc2ncnc(Nc3ccc(F)c(Cl)c3)c2cc1NC(=O)/C=C/CN1CCCCC1` had a relative cell count of 0.035.

As to `Cc1cc(-c2ccccc2)cc(C(=O)NNS(=O)(=O)c2ccccc2)c1F`, the relative cell count came out at 0.966.

With `Cn1c(=O)n(-c2ccc(C(C)(C)C#N)cc2)c2c3cc(-c4cnc5ccccc5c4)ccc3ncc21`, the relative cell count is 0.765.

For `CCCCCC[C@H]1C(=O)O[C@H](C)[C@H](NC(=O)c2cccc(NC=O)c2O)C(=O)O[C@@H](C)[C@@H]1OC(=O)CC(C)C`, the relative cell count stood at 0.831.

Take `COC(=O)[C@]1(C)CC[C@]2(C)CC[C@]3(C)C4=CC=C5C(=CC(=O)C(O)=C5C)[C@]4(C)CC[C@@]3(C)[C@@H]2C1`: the relative cell count came out at 0.117.

The assay is the same for the next values; noted with them: 40 µM; 24 h.
In turn, `Cc1cc2c(C(C)C)c(O)c(O)c(C=O)c2c(O)c1-c1c(C)cc2c(C(C)C)c(O)c(O)c(C=O)c2c1O` yielded a relative cell count of 0.246.

Take `CC(=O)c1c(O)c(C)c(O)c(Cc2c(O)c3c(c(C(=O)C=Cc4ccccc4)c2O)OC(C)(C)C=C3)c1O`: the relative cell count was 0.889.

Take `O=C(O[C@@H]1Cc2c(O)cc(O)cc2O[C@@H]1c1cc(O)c(O)c(O)c1)c1cc(O)c(O)c(O)c1`: the relative cell count came to 0.843.

Regarding `CCCCCCCCCCCCCCCc1cccc(O)c1C(=O)O`, the relative cell count came out at 0.326.

Regarding `Cl.Cl.O=C(O)Cn1nnc(-c2ccc(CN(CCCCOc3ccc(CN4CCCC4)cc3)CCc3ccccc3)cc2)n1`, the relative cell count is 0.376.

The same assay, now with this note: 80 µM; 24 h.
Molecule `Cc1cc2c(C(C)C)c(O)c(O)c(C=O)c2c(O)c1-c1c(C)cc2c(C(C)C)c(O)c(O)c(C=O)c2c1O` returned a relative cell count of 0.261.

`CC(=O)c1c(O)c(C)c(O)c(Cc2c(O)c3c(c(C(=O)C=Cc4ccccc4)c2O)OC(C)(C)C=C3)c1O` displayed a relative cell count of 0.727.

Molecule `O=C(O[C@@H]1Cc2c(O)cc(O)cc2O[C@@H]1c1cc(O)c(O)c(O)c1)c1cc(O)c(O)c(O)c1` showed a relative cell count of 0.466.

Molecule `CCCCCCCCCCCCCCCc1cccc(O)c1C(=O)O` returned a relative cell count of 0.342.

`Cl.Cl.O=C(O)Cn1nnc(-c2ccc(CN(CCCCOc3ccc(CN4CCCC4)cc3)CCc3ccccc3)cc2)n1` registered a relative cell count of 0.0195.

For another assay, the system named is U-2 OS. Put plainly: AUC of culture confluence over time (live-cell imaging) (AUC (confluence % x time)); higher = more confluent culture (less growth inhibition). The note with it: 0.625 µM. The method in brief: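 Reported values are areas under curves of confluence against time, recorded by live-cell imaging of U-2 OS cells. Cells in F-12K medium with 10% FBS, seeded at 750 per well in 384-well plates, were treated by pin tool 24 h later, most compounds at 20, 10 and 5 μM with 0.2% DMSO. Imaging at 37 °C took place every 4 h for up to 60 h.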
For `COC[C@H]1OC(=O)c2coc3c2[C@@]1(C)C1=C(C3=O)[C@@H]2CCC(=O)[C@@]2(C)C[C@H]1OC(C)=O`, the “AUC of culture confluence over time” value was 57.9.

Take `C[C@@H]1C[C@H]2O[C@@H]2/C=C\C=C\C(=O)Cc2c(Cl)c(O)cc(O)c2C(=O)O1`: the “AUC of culture confluence over time” value was 57.8.

Staying with this assay, now noted: 1.25 µM.
Take `COC[C@H]1OC(=O)c2coc3c2[C@@]1(C)C1=C(C3=O)[C@@H]2CCC(=O)[C@@]2(C)C[C@H]1OC(C)=O`: the “AUC of culture confluence over time” value amounted to 56.1.

On to `C[C@@H]1C[C@H]2O[C@@H]2/C=C\C=C\C(=O)Cc2c(Cl)c(O)cc(O)c2C(=O)O1`, for which the “AUC of culture confluence over time” value was found to be 48.6.

Still in this assay, the particulars now being: 2.5 µM.
On to `COC[C@H]1OC(=O)c2coc3c2[C@@]1(C)C1=C(C3=O)[C@@H]2CCC(=O)[C@@]2(C)C[C@H]1OC(C)=O`, for which the “AUC of culture confluence over time” value is 56.6.
